# Source: patent US20130149701A1, “METHODS OF IDENTIFYING THERAPEUTIC AGENTS FOR TREATING PERSISTER AND BACTERIAL INFECTION” (priority 2010, published 2013)
# Entries after “also recorded” stand apart in the source; their conditions may differ.
# What was measured:
# [1] = molecular target: T1, wild type M. tuberculosis RpsA binding to tmRNA (Mycobacterium tuberculosis, UniProt P9WH43); settings: for effect on tmRNA binding to wild type RpsA: FIG. 5A, POA Lanes 2-7, PZA (200 g/ml), INH (1 g/ml)
# T1 sequence (P9WH43 1-481): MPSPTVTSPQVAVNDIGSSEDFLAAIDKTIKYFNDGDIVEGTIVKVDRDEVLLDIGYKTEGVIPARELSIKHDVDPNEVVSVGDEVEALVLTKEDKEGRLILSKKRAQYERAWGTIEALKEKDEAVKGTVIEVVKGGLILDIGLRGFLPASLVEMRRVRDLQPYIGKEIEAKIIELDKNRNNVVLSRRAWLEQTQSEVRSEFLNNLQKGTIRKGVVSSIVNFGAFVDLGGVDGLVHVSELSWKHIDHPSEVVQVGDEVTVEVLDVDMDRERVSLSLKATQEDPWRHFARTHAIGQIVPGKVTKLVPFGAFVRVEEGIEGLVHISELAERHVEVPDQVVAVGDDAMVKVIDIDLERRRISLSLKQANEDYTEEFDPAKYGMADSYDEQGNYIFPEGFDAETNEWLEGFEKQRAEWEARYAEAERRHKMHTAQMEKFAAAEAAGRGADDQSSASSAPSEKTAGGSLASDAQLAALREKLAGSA
# [2] = molecular target: T2, Endonuclease IV (Rv0670) (Mycobacterium tuberculosis, UniProt P9WQ13); assay type: biochemical, M. tuberculosis
# T2 sequence (P9WQ13 whole entry): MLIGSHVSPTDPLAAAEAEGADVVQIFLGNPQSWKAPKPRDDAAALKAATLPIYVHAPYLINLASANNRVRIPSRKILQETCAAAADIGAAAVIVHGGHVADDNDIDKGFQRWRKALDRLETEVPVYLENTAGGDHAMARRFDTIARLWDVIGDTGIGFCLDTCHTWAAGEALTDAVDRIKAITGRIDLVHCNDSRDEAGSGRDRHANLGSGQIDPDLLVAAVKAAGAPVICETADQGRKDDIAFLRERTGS
# [3] = molecular target: T2, Endonuclease IV (Rv0670); assay: Endonuclease IV (Rv0670) activity on oligonucleotides with AP, U or H lesions; assay type: biochemical, M. tuberculosis; settings: oligos with AP, U or H lesion; POA 2, 4, 8, 16, 25 and 34 mM; INH and PZA 25 mM
# [4] = molecular target: M. tuberculosis H37Rv RpsA (WT) (Mycobacterium tuberculosis, UniProt P9WH43); assay: biochemical; assay type: binding
# [5] = molecular target: T3, M. smegmatis RpsA (Mycolicibacterium smegmatis, UniProt A0QYY6); assay type: binding; settings: 10 μM RpsA titrated with 100 μM POA
# T3 construct: made in house
# T3 sequence (A0QYY6 1-479): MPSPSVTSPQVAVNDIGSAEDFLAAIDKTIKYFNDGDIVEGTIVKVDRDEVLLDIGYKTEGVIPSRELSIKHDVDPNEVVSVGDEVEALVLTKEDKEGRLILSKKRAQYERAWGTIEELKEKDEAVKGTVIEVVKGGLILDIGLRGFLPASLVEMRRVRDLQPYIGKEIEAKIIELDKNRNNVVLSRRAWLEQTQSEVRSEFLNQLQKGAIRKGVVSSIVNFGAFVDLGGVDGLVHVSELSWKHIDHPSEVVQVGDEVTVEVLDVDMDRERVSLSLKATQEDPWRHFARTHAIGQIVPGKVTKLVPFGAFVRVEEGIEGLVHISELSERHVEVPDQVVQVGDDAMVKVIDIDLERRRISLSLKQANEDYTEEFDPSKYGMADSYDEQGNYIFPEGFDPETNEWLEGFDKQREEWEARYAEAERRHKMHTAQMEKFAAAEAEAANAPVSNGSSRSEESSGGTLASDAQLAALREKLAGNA
# [6] = molecular target: M. tuberculosis ribosome, tmRNA and SmpB (trans-translation) (Mycobacterium tuberculosis, UniProt P9WH43); assay type: biochemical
# [7] = molecular target: M. tuberculosis ribosome (canonical translation) (Mycobacterium tuberculosis, UniProt P9WH43); assay type: biochemical
# [8] = molecular target: ribosome from M. smegmatis (trans-translation) (Mycolicibacterium smegmatis, UniProt A0QYY6); assay type: biochemical
# [9] = molecular target: ribosome from E. coli (trans-translation) (Escherichia coli, UniProt P0AG67); assay type: biochemical
# [10] = tested on: M. tuberculosis cell lysates; assay type: binding
# [11] = tested on: M. tuberculosis; assay: MIC of POA as stated in the text; assay type: cell-based; settings: Mycobacterium tuberculosis, read-out: MIC concentration
# [12] = tested on: Mtb clinical isolate DHM444 / H37Rv; assay: microbe, parasite or virus in culture; assay type: cell-based, M. tuberculosis; settings: Mycobacterium tuberculosis, PZA, sensitive control strain H37Rv
compound,measurement,setting,value
"NNC(=O)c1ccncc1 [INH, isoniazid]",effect on tmRNA binding to wild type RpsA,[1],no effect; also recorded: not affected
same,inhibition of Rv0670 (Endo IV/V) activity,[2],no inhibition and not
same,inhibition of Rv0670 endonuclease activity,[3],did not inhibit
"O=C(O)c1cnccn1 [POA, 2-pyrazinecarboxylic acid]",binding to wild type RpsA (ITC),[4],bound; also recorded: specifically bind
same,ΔS (ITC),[4]; pH 7.4,27.6 cal·mol^−1·K^−1
same,Kd,"[4]; read-out: K (binding constant, ITC)",133 nM
same,binding to M. smegmatis RpsA (ITC),[5],only weakly; also recorded: only very weakly
same,effect on tmRNA binding to wild type RpsA,[1],Concentration-dependent inhibition
same,inhibition of wild type Mtb RpsA binding to tmRNA,[1]; POA at its MIC concentration of 50 μg/ml,inhibited
same,concentration inhibiting trans-translation of DHFR with the rare codon cluster,[6],≥ 25 µg/mL
same,inhibition of trans-translation of the DHFR product,[6],inhibited
same,trans-translation product DHFR,[6],still present
same,"inhibition of trans-translation, densitometry of band intensities",[6]; n=5,Concentration-dependent inhibition
same,effect on conventional protein synthesis (canonical translation),[7],no effect; also recorded: did not inhibit
same,effect on translation of the normal DHFR gene,[7],did not affect
same,inhibition of trans-translation,[8],nor did it inhibit; also recorded: did not inhibit
same,inhibition of trans-translation,[9],nor did it inhibit; also recorded: did not inhibit
same,inhibition of Rv0670 (Endo IV/V) activity,[2],inhibited the activity of Rv0670 (Endo IV/V) completely
same,reversibility of Endo IV/V inhibition,[2]; dilution or dialysis,irreversibly
same,inhibition of Rv0670 endonuclease activity,[3],inhibited Rv0670 activity specifically in a dose dependent manner; also recorded: specific inhibition
same,proteins bound to POA identified by Mass Spectrometry,"[10]; Examples 8-16, columns with 5-hydroxyl- and 6-hydroxyl-2-pyrazinecarboxylic acid",9 proteins
same,proteins that bound to POA,"[10]; M. tuberculosis cell lysates, column with 5-hydroxyl-2-pyrazinecarboxylic acid, FIG. 1",several proteins
same,major POA binding protein,"[10]; POA-linked column, mass spectrometry",RpsA
same,MIC,[11],50 µg/mL
"NC(=O)c1cnccn1 [PZA, Pyrazinamide]",MIC,[12],100 µg/mL
same,binding to wild type RpsA (ITC),[4],did not bind
same,effect on tmRNA binding to wild type RpsA,[1],no effect; also recorded: not affected
same,inhibition of Rv0670 (Endo IV/V) activity,[2],no inhibition and not
same,inhibition of Rv0670 endonuclease activity,[3],did not inhibit
O=C(O)c1cccnc1 [nicotinic acid],inhibition of trans-translation,[6],did not inhibit
